# Measured values published in paper PMC11679793, “Structure-Activity Relationship Study of Majusculamide D: Overcoming Metabolic Instability and Severe Toxicity with a Fluoro Analogue” (Marine Drugs, 2024).
# What was measured:
# [1] = Preliminary water solubility test; type: physicochemical; settings: 25 °C, ultrasonic treatment 30 min, visual
# [2] = tested on: PANC-1 and MIA PaCa-2 pancreatic cancer cells; experiment: Wound healing assay; type: cell-based; settings: PANC-1 and MIA PaCa-2, 24 h, concentration-dependent, vs control
# Excerpt: (§1) Figure S225. Compound 1a inhibited the migration, invasion and proliferation of pancreatic cancer cells. (A) The results of wound healing assays to investigate the effects of 1a on the migration ability against PANC-1 and MIA PaCa-2 pancreatic cancer cells. (B) The results of transwell assays to investigate the effects of 1a on the invasion ability. (C) Effects of 1a on the clonogenic ability. (D) EdU assays of 1a. (E) Western blot assays of 1a on biomarkers. Data are presented as mean ± SD, n […]
# (§2) Approximately 50% of pancreatic cancer patients show distant metastases at the time […]
# (§3) disease. To evaluate the inhibitory effects of majusculamide D (1a) on the migratory capabilities of pancreatic cancer cells (PANC-1 and MIA PaCa-2), wound healing assays […]
# (§4) were performed (Figure S1A). […]
# (§5) concentration-dependent manner. […]
# (§6) inhibited the migration of these pancreatic cancer cells. Further validation with transwell […]
# (§7) concentration-dependent manner compared to the control group (Figure S1B). Since cell migration and invasion are correlated with cancer metastasis, compound 1a may delay the progression of tumors’ local spread and distant metastasis by inhibiting the migration and invasion ability of pancreatic cancer cells. […]
# (§8) Images were taken at 0 hour and 24 hours after treatment to record and analyzed by measuring the area of the wound at each time point using ImageJ. […]
# [3] = tested on: PANC-1 and MIA PaCa-2 pancreatic cancer cells; experiment: Transwell invasion assay; type: cell-based; settings: 24 h, concentration-dependent, vs control
# Excerpt: as §1, §2, §3, §4, §5, §6, §7, §8
# pancreatic cancer cells [4] = experiment: Clone formation assay; type: cell-based; settings: 48 h treatment then 10 days culture, concentration-dependent, vs control
# Excerpt: dependent manner (Figure S1C). […]
# growth and survival of pancreatic cancer cells. […]
# Snail and TCF8/ZEB1 both […]
# are transcription factors that can inhibit the expression of E-cadherin and promote the EMT process. Vimentin is a marker protein of mesenchymal cells, and its expression increases during EMT, further contribute to the process of metastasis by supporting the structural changes needed for cell migration and invasion.
# We examined the effects of compound 1a on above key proteins involved in tumor progression pathways employing Western blot analysis in PANC-1 cells and MIA PaCa-2 […]
# 1a might inhibit cancer cell invasion and migration by enhancing cell-cell adhesion and barrier function. Conversely, the expression levels of β-catenin, Fibronectin, Snail, […]
# Cells were resuspended at a concentration of 300 cells/mL, and 2 mL of the suspension was added to each well of a 6-well plate. After the cells adhered to the plate, the compound was added, and the cells were incubated for 48 hours, followed by replacement with fresh medium. The cells were then cultured for an additional 10 days. Subsequently, the cells were fixed with methanol and stained with crystal violet. The colonies were imaged under a microscope and quantified using ImageJ.
# The BeyoClick™ EdU-488 Cell Proliferatio n Assay Kit (Beyotime Biotechnology, China) was used according to the manufacturer's instructions. […]
# pancreatic cancer cells [5] = tested on: pancreatic cancer cells; parameters: method as in PMID 30673235; settings: cited from earlier work
smiles,measurement,setting,value
"CCCCC(C)CC(C)C(=O)N(C)C(Cc1ccc(OC)cc1)C(=O)NC(C(=O)N(C)C(C(=O)N1CC(O)CC1C(=O)N1C(=O)C=CC1C)C(C)C)C(C)OC(C)=O (centres unmarked) [Compound 1a, Majusculamide D]",Solubility (mg/mL),[1],Insoluble
same,scratch wound healing rate (migration),[2],significantly reduced the scratch wound healing rate
same,cell invasion (transwell),[3],significantly decreased cell invasion
same,colony formation,pancreatic cancer cells [4],remarkably reduced colony formation
same,selectivity against pancreatic cancer cells in vitro,pancreatic cancer cells [5],up to 4 × 10^3
